This is an account of results in patent publication US5017619A, “Phenethanolamine derivatives” (Hoffmann-La Roche Inc., priority 1985, dated 1991).

Like-named read-outs stand apart in the source and are kept apart here.

For assay [1], the system named is male albino rats. The assay can be described thus: Activity on oxygen consumption. The format is in vivo. Conditions: rat, per os, corrected for placebo group; for response vs control in vivo at 0.3 µM, 0.3 µmol/kg / response vs control in vivo at 3 µM, 3 µmol/kg / response vs control in vivo at 1 µM, 1 µmol/kg: po; for response vs control in vivo at 3 µM, 3 µmol/kg: 3 μM/kg; for response vs control in vivo at 1 µM, 1 µmol/kg: 1 μM/kg. On the procedure: (1) Activity on oxygen consumption
Male albino rats weighing 160-180 g were placed in metabolic cages after fasting for 24 hours. The cages were ventilated with a constant 6 liter room air/minute which was equilibrated at a dew point of 11° C. Samples of the spent air were collected during periods of in each case 14 minutes after again equilbrating and the oxygen content and CO2 content were analyzed. After an adaptation time of 4 hours the animals, divided into groups of 6, received either placebo (5% gum arabic) or the test substance (suspended in 5% gum arabic) per os. Thereafter, the determinations were carried out for a period of 12 hours. In Table I there is given the percentage of the average oxygen consumption after medication during the first 3 hours and the entire test duration (12 hours) of the oxygen consumption of the adaptation period, corresponding corrections for variations in the placebo group having been taken into consideration.

In assay [2] the test system is female hyperglycaemic fat mice. Kind of assay: Activity on urine glucose and blood glucose and the formation of brown adipose tissue (obese-hyperglycaemic mice). In kind it is in vivo. Conditions: oral, percentage of control value; for Blood glucose / Brown adipose tissue (weight of interscapular brown adipose tissue): end of 15-day test. On the procedure:
(2) Activity on urine glucose and blood glucose and the formation of brown adipose tissue
Female hyperglycaemic fat mice were adapted to an amount of feed limited to 3 g/day/animal. The test compounds (suspended in 5% gum arabic) or placebo (5% gum arabic) were administered orally twice daily during 15 days. Urine was collected for 6 days a week and urine glucose was determined. Blood glucose and the weight of the interscapular brown adipose tissue were determined at the end of the test.
The test results are given in Table II as a percentage of the control value.

Assay [3] deals with streptozotocin-diabetic rats. Kind of assay: Activity on the urine glucose of streptozotocin-diabetic rats. In kind it is in vivo, albino rats. Conditions: oral, 90 μM/kg per day, 2nd week of treatment. On the procedure:
(3) Activity on the urine glucose of streptozotocin-diabetic rats
A diabetes was produced in female albino rats (weight 130-140 g) by the subcutaneous injection of streptozotocin (70 mg/kg). The diabetic animals were adapted to an amount of feed limited to 15 g/day/animal. The test compound (suspended in 5% gum arabic) or placebo (5% gum arabic) was administered orally twice daily. The urine was collected for 6 days a week and urine glucose was determined. The urine glucose excretion of the treated animals during the 2nd week of treatment is given in Table III as a percentage of the control value.

[4] abbreviates: 3 h, 0.3 μM/kg, 1st-3rd hour, read-out: O2 consumption, % of value of the pre-period, 1st-3rd hour.
The mark [5] stands for this setting: 12 h, 0.3 μM/kg, 1st-12th hour, read-out: O2 consumption, % of value of the pre-period, 1st-12th hour.
[6] abbreviates: 3 h, 1st-3rd hour, read-out: O2 consumption, % of value of the pre-period, 1st-3rd hour.
Where [7] appears, read: 12 h, 1st-12th hour, read-out: O2 consumption, % of value of the pre-period, 1st-12th hour.

Turning to `COC(=O)C=CCOc1ccc(C[C@@H](C)N(C[C@H](O)c2ccccc2)C[C@H](O)c2ccccc2)cc1` [Example 4], the “O2 consumption, % of value of the pre-period, 1st-3rd hour” value in assay [1] (0.3 μM/kg, 1st-3rd hour) came to 123%. For the same molecule, the “O2 consumption, % of value of the pre-period, 1st-12th hour” value in assay [1] (0.3 μM/kg, 1st-12th hour) came to 110%.
Regarding `C[C@H](Cc1ccc(OCCOCCc2ccccc2)cc1)N(C[C@H](O)c1cccc(Cl)c1)C[C@H](O)c1cccc(Cl)c1` [Example 2g1, α,α'-[[[(R)-α-methyl-p-[2-(phenethoxy)ethoxy]phenethyl]imino]dimethylene]bis[(R)-m-chlorobenzyl alcohol]], the response vs control in vivo at 0.3 µM, 0.3 µmol/kg in assay [1] (setting [4]) was determined as 137%; in assay [1] (setting [5]) it was 117%.
Turning to `CCOCCOc1ccc(C[C@@H](C)N(C[C@@H](O)c2cccc(Cl)c2)C[C@H](O)c2ccccc2)cc1` [Example 10a2, (S)-m-chloro-α-[[[(R)-p-(2-ethoxyethoxy)-α-methylphenethyl][(R)-β-hydroxyphenethyl]amino]methyl]benzyl alcohol], the results for the response vs control in vivo at 3 µM, 3 µmol/kg in assay [1] (setting [6]) and in assay [1] (setting [7]) were 183% and 141%, respectively.
In the case of `C[C@H](Cc1ccc(OCCOCCc2ccccc2)cc1)N(C[C@H](O)c1ccccc1)C[C@H](O)c1ccccc1` [Example 1, α,α'-[[[(R)-α-methyl-p-[2-(phenethoxy)ethoxy]phenethyl]imino]dimethylene]di-(R)-benzyl alcohol], the response vs control in vivo at 1 µM, 1 µmol/kg in assay [1] (setting [6]) worked out at 147%; in assay [1] (setting [7]), 117%.
For the molecule `O[C@H](CN(CCc1ccc(OCCOCCc2ccccc2)cc1)C[C@H](O)c1cccc(Cl)c1)c1cccc(Cl)c1` [Example 12a, (R)-m-chloro-α-[[[(S)-m-chloro-β-hydroxyphenethyl]-[p-[2-(phenethoxy)ethoxy]phenethyl]amino]methyl]benzyl alcohol], the response vs control in vivo at 1 µM, 1 µmol/kg was determined as 143% in assay [1] (setting [6]) and 116% in assay [1] (setting [7]).
Regarding `CCOCCOc1ccc(CCN(C[C@H](O)c2cccc(Cl)c2)C[C@H](O)c2cccc(Cl)c2)cc1` [Example 8d, α,α'-[[[p-(2-ethoxyethoxy)phenethyl]imino]dimethylene]bis[(R)-m-chlorobenzyl alcohol]], the response vs control in vivo at 3 µM, 3 µmol/kg in assay [1] (setting [6]) stood at 172%; in assay [1] (setting [7]) it was 147%.
Turning to `C[C@H](Cc1ccc(OCCOCc2ccc(Oc3ccccc3)cc2)cc1)N(C[C@H](O)c1ccccc1)C[C@H](O)c1ccccc1` [Example 2e, α,α'-[[[(R)-α-methyl-p-[2-[(p-phenoxybenzyl)oxy]ethoxy]phenethyl]imino]dimethylene]di-(R)-benzyl alcohol], the figures for the response vs control in vivo at 1 µM, 1 µmol/kg in assay [1] (setting [6]) and in assay [1] (setting [7]) were 145% and 116%, respectively.
In the same order, the values of `COCCOCCOc1ccc(C[C@@H](C)N(C[C@H](O)c2ccccc2)C[C@H](O)c2ccccc2)cc1` [Example 2b] are 166% and 119%.
As for `CCOCCOc1ccc(CCN(C[C@@H](O)c2cccc(Cl)c2)C[C@H](O)c2cccc(Cl)c2)cc1` [Example 11, (R)-m-chloro-α-[[[(S)-m-chloro-β-hydroxyphenethyl][p-(2-ethoxyethoxy)phenethyl]amino]methyl]benzyl alcohol], the response vs control in vivo at 3 µM, 3 µmol/kg in assay [1] (setting [6]) is 181%; in assay [1] (setting [7]) it was 140%.
With `CC(Cc1ccc(OCCOCCc2ccccc2)cc1)N(CC(O)c1cccc(Cl)c1)CC(O)c1cccc(Cl)c1` [Example 2g2, (R)-m-chloro-α-[[[(S)-m-chloro-β-hydroxyphenethyl][(R)-α-methyl-p-[2-phenethoxy)ethoxy]phenethyl]amino]-methyl]benzyl alcohol]], in assay [1] (setting [6]), the response vs control in vivo at 1 µM, 1 µmol/kg worked out at 163%. Moreover, the response vs control in vivo at 1 µM, 1 µmol/kg in assay [1] (setting [7]) came to 131%. Moreover, in assay [2] (3 μM/Kg per day), the “Urine glucose 1st week” value is recorded as 17.7%, the “Urine glucose 2nd week” value was 2.4%, the Blood glucose came to 38% and the “Brown adipose tissue (weight of interscapular brown adipose tissue)” value (shortened to “Brown adipose tissue”) was 157%. Also, in assay [2] (30 μM/Kg per day), the “Urine glucose 1st week” value is recorded as 1.6%, the “Urine glucose 2nd week” value worked out at 0.6%, the Blood glucose is reported as 33% and the “Brown adipose tissue” value is recorded as 144%. In addition, the “Urine glucose 2nd week, % of controls” value in assay [3] was found to be 68%.
As for `CCOCCOc1ccc(C[C@@H](C)N(C[C@H](O)c2ccccc2)C[C@H](O)c2cccc(Cl)c2)cc1` [Example 10a1, 3-chloro-α,α'-[[[(R)-p-(2-ethoxyethoxy)-α-methylphenethyl]imino]dimethylene]di-(R)-benzyl alcohol], the response vs control in vivo at 0.3 µM, 0.3 µmol/kg came to 154% in assay [1] (setting [4]) and 117% in assay [1] (setting [5]).
For `CCOCCOc1ccc(C[C@@H](C)N(C[C@H](O)c2ccccc2)C[C@H](O)c2ccccc2)cc1` [Example 2a, α,α'-[[[(R)-p-(2-ethoxyethoxy)-α-methylphenethyl]imino]dimethylene]di-(R)-benzyl alcohol], in that order: 152% and 114%.
As for `CCOCCOc1ccc(CCN(C[C@H](O)c2ccccc2)C[C@H](O)c2ccccc2)cc1` [Example 2f, α,α'-[[[p-(2-ethoxyethoxy)phenethyl]imino]dimethylene]di-(R)-benzyl alcohol], the response vs control in vivo at 1 µM, 1 µmol/kg in assay [1] (setting [6]) came to 142%. In addition, the response vs control in vivo at 1 µM, 1 µmol/kg in assay [1] (setting [7]) was 112%. In addition, in assay [2] (9 μM/Kg per day), the “Urine glucose 1st week” value is 43%, the “Urine glucose 2nd week” value was found to be 33%, the Blood glucose is given as 51% and the “Brown adipose tissue” value was 158%. For the same molecule, in assay [2] (90 μM/Kg per day), the “Urine glucose 1st week” value stood at 4.8%, the “Urine glucose 2nd week” value is recorded as 0.3%, the Blood glucose came out at 34% and the “Brown adipose tissue” value was determined as 163%.
Consider `C[C@H](Cc1ccc(OCCOCCc2ccccc2)cc1)N(C[C@@H](O)c1cccc(Cl)c1)C[C@@H](O)c1cccc(Cl)c1` [Example 2g3], for which the results for the response vs control in vivo at 3 µM, 3 µmol/kg in assay [1] (setting [6]) and in assay [1] (setting [7]) were 138% and 119%, respectively.
`C[C@H](Cc1ccc(OCCOCCc2ccc(F)cc2)cc1)N(C[C@H](O)c1ccccc1)C[C@H](O)c1ccccc1` [Example 2c]: the response vs control in vivo at 1 µM, 1 µmol/kg stood at 167% in assay [1] (setting [6]) and 122% in assay [1] (setting [7]).
